Several values for one entry are separate records, joined by “and”; a condition that tells them apart may be missing. Identical values can stand only once. Like-named read-outs stand apart in the source and are kept apart here.
Experiments:
[1] = test system: Lice (L) and Plutella (P) eggs; assay: whole plant or invertebrate; conditions: read-out: Ovicidal activity %
lice eggs = assay: whole plant or invertebrate; format: in vivo; conditions: for Activity class 0 = inactive 1 = low 2 = med 3 = high / inhibition at 10000 µM / Ovicidal activity %: Lice (L); for Activity class 0 = inactive 1 = low 2 = med 3 = high: listed as of 10 mM; for inhibition at 10000 µM: Pediculus humanus, read-out: Ovicidal activity %; for inhibition at 10000 µM / Ovicidal activity %: 10 mM; for H (number of eggs successfully hatched) / Ph (number of eggs partly hatched): per replicate, concentration not given
Plutella xylostella eggs = assay: whole plant or invertebrate; format: in vivo; conditions: for Logit calc pLD50 / Pref pLD50: in vivo
Protocol: The ovicidal efficacy of 2-acetyl-1-tetralone was also tested against Plutella eggs.

[2] = test system: Lice (L) and Plutella (P) eggs; conditions: Lice (L) and Plutella (P)
[3] = test system: Helicoverpa armigera eggs; assay: Egg hatching of Helicoverpa armigera; conditions: for Number hatched / Number unhatched / % Inhibition: Table 13; for % Inhibition: relative to the control (100% MeOH)
[4] = Plutella (P), listed as of 10 mM
[5] = Plutella xylostella, Plutella (P), 10 mM, read-out: Ovicidal activity %
[6] = Plutella (P), listed as of 1 mM
[7] = Table 17, eggs laid on cloth, 1 mM in 1% diethoxyglycol
[8] = Plutella xylostella, read-out: Ovicidal activity %
[9] = Table 10, eggs laid on cloth, 1 mM
[10] = Table 10, eggs laid on cloth, 10 mM
[11] = Table 11, eggs laid on parafilm, 1 mM
[12] = Table 11, eggs laid on parafilm, 10 mM

`c1ccc2nc(-c3ccc4ccccc4n3)ccc2c1` [2,2′-biquinoline] gave an inhibition at 10000 µM [1] of 0%.

For `COC(=O)c1ccc(-c2ccc(C(=O)OC)cn2)nc1` [2,2′ Bipyridinyl-5,5′-dicarboxylic acid dimethyl ester], the “Activity class 0 = inactive 1 = low 2 = med 3 = high” value (lice eggs) was 0 (A pLD50 value less than 2 is considered inactive (Class 0)) and the inhibition at 10000 µM (lice eggs) was 0%.

With `Cc1nc(-c2nc(C)c(C)[nH]2)[nH]c1C` [2,2′-Bis(4,5-dimethylimidazole)] the Ovicidal activity % (lice eggs) was 0.00% and the “Activity class 0 = inactive 1 = low 2 = med 3 = high” value (lice eggs) was 0 (A pLD50 value less than 2 is considered inactive (Class 0)).

`O=C(NO)c1ccccc1` [Benzohydroxaminic acid] was tested, and the Ovicidal activity % (Plutella xylostella eggs; Plutella (P), 10 mM) was 0.00% and the “Activity class 0 = inactive 1 = low 2 = med 3 = high” value (Plutella xylostella eggs; [4]) was 0 (A pLD50 value less than 2 is considered inactive (Class 0)).

With `O=C(CC(=O)c1cccnc1)c1cccnc1` [1,3-dipyridin-3-yl-propane-1,3-dione] the inhibition at 10000 µM (Plutella xylostella eggs; [5]) was 0%, the “Logit calc pLD50” value (Plutella xylostella eggs) was 0.7 and the “Pref pLD50” value (Plutella xylostella eggs) was less than 2.

With `c1ccc(-c2cccc(-c3ccccn3)n2)nc1` [2,2′,6,2″-terpyridine] the Ovicidal activity % (lice eggs) was 0.00%, the “Activity class 0 = inactive 1 = low 2 = med 3 = high” value (lice eggs) was 0 (A pLD50 value less than 2 is considered inactive (Class 0)) and the “inhibition of Plutella egg hatching” value (Plutella xylostella eggs; 1 mM, 1% diethoxyglycol) was “complete inhibition”. For the same compound, the Ovicidal activity % (Plutella xylostella eggs; Plutella (P), 1 mM) was 100%, the “Activity class 0 = inactive 1 = low 2 = med 3 = high” value (Plutella xylostella eggs; [6]) was 3 (a pLD50 greater than 4 is considered strongly active (Class 3)) and the Number hatched (Plutella xylostella eggs; [7]) was 0. For the same compound, the Number unhatched (Plutella xylostella eggs; [7]) was 46 and the “% Inhibition” value (Plutella xylostella eggs; Table 17, 1 mM, relative to control (1% diethoxyglycol)) was 100%.

For `c1ccc(-c2ccccn2)nc1` [2,2′-dipyridyl], the “lice egg hatching” value (lice eggs; all time points examined (24-120 hr post egg laying)) was “completely inhibited”, the “H (number of eggs successfully hatched)” value (lice eggs; treated 24 hr post egg laying) was 0 and the “Ph (number of eggs partly hatched)” value (lice eggs; treated 24 hr post egg laying) was 0. For the same compound, the “H (number of eggs successfully hatched)” value (lice eggs; treated 48 hr post egg laying) was 0, the “Ph (number of eggs partly hatched)” value (lice eggs; treated 48 hr post egg laying) was 0 and the “H (number of eggs successfully hatched)” value (lice eggs; treated 72 hr post egg laying) was 0. For the same compound, the “Ph (number of eggs partly hatched)” value (lice eggs; treated 72 hr post egg laying) was 0, the “H (number of eggs successfully hatched)” value (lice eggs; treated 96 hr post egg laying) was 1 and 0 (2×) and the “Ph (number of eggs partly hatched)” value (lice eggs; treated 96 hr post egg laying) was 0. The “H (number of eggs successfully hatched)” value (lice eggs; treated 120 hr post egg laying) was 0, the “Ph (number of eggs partly hatched)” value (lice eggs; treated 120 hr post egg laying) was 0 and the Ovicidal activity % ([2]; 10 mM) was 100.00%. The “Activity class 0 = inactive 1 = low 2 = med 3 = high” value ([2]; listed as of 10 mM) was 1 (a pLD50 value between 2 and 3 is considered weakly active (Class 1)).

`CC(=O)CC(=O)c1ccccc1` [Benzoylacetone] showed an inhibition at 1000 µM (Plutella xylostella eggs; Plutella xylostella, Plutella (P), 1 mM, read-out: Ovicidal activity %) of 0% and an inhibition at 10000 µM (Plutella xylostella eggs; [5]) of 90%.

Work on `c1ccc(Cc2ccccn2)cc1` [2-benzyl-pyridine] yielded an inhibition at 10000 µM [1] of 0%.

`O=C(CC(=O)c1ccc(Cl)cc1)c1ccccc1` [1-(4-Chloro-phenyl)-3-phenyl-propane-1,3-dione] was tested, and the inhibition at 10000 µM (lice eggs) was 0%.

In the case of `c1ccc(-c2cc(N3CCOCC3)c3ccccc3n2)nc1` [4-Morpholin-4-yl-2-pyridin-2-yl-quinoline], the inhibition at 10000 µM [1] is reported as 0%.

`O=C(CC(=O)c1ccccc1)c1ccccc1` [Dibenzoyl methane] was tested, and the inhibition at 10000 µM (Plutella xylostella eggs; [8]) was 90%.

Compound `N[C@@H]1CCCC[C@H]1O` (relative stereo) [Trans-2-aminocyclohexanol] has an inhibition at 10000 µM (Plutella xylostella eggs; [8]) of 0%.

`COc1ccc(C(=O)CC(=O)c2ccc(OC)cc2)cc1` [1,3-Bis-(4-methoxy-phenyl)-propane-1,3-dione] was tested, and the inhibition at 10000 µM (Plutella xylostella eggs; [5]) was 0%, the “Logit calc pLD50” value (Plutella xylostella eggs) was 0.7 and the “Pref pLD50” value (Plutella xylostella eggs) was less than 2.

`c1ccc(Nc2ccccn2)nc1` [2,2-dipyridylamine] was tested, and the Ovicidal activity % (Plutella xylostella eggs; Plutella (P), 1 mM) was 0.00%, the Ovicidal activity % (Plutella xylostella eggs; Plutella (P), 10 mM) was 100% and the “Activity class 0 = inactive 1 = low 2 = med 3 = high” value (Plutella xylostella eggs; [6]) was 0 (A pLD50 value less than 2 is considered inactive (Class 0)). For the same compound, the “Activity class 0 = inactive 1 = low 2 = med 3 = high” value (Plutella xylostella eggs; [4]) was 1 (a pLD50 value between 2 and 3 is considered weakly active (Class 1)).

In the case of `Cc1ccnc(-c2cc(C)ccn2)c1` [4,4′-dimethyl-2,2′-dipyridyl], the “effect on egg hatching of Helicoverpa armigera (words)” value ([3]; 1 mM) is reported as “significant inhibition of egg hatching”, the “effect on egg hatching of Helicoverpa armigera (words)” value ([3]; 10 mM) is reported as “significant inhibition of egg hatching” and the Number hatched ([3]; 1 mM) is reported as 23. For the same compound, the Number unhatched ([3]; 1 mM) was 29, the “% Inhibition” value ([3]; 1 mM) was 66% and the Number hatched ([3]; 10 mM) was 8. For the same compound, the Number unhatched ([3]; 10 mM) was 43, the “% Inhibition” value ([3]; 10 mM) was 84% and the “effect on egg hatching of Plutella xylostella (words)” value (Plutella xylostella eggs; 10 and 1 mM) was “significantly inhibit egg hatching”. For the same compound, the Ovicidal activity % (Plutella xylostella eggs; Plutella (P), 0.1 mM) was 65.00%, the Ovicidal activity % (Plutella xylostella eggs; Plutella (P), 1 mM) was 100.00% and the Ovicidal activity % (Plutella xylostella eggs; Plutella (P), 10 mM) was 100.00%. For the same compound, the “Activity class 0 = inactive 1 = low 2 = med 3 = high” value (Plutella xylostella eggs; [6]) was 3 (a pLD50 greater than 4 is considered strongly active (Class 3)), the Number hatched (Plutella xylostella eggs; [9]) was 0 and the Number unhatched (Plutella xylostella eggs; [9]) was 30. For the same compound, the “% Inhibition” value (Plutella xylostella eggs; Table 10, eggs laid on cloth, 1 mM, relative to controls) was 100%, the Number hatched (Plutella xylostella eggs; [10]) was 0 and the Number unhatched (Plutella xylostella eggs; [10]) was 36. For the same compound, the “% Inhibition” value (Plutella xylostella eggs; Table 10, eggs laid on cloth, 10 mM, relative to controls) was 100%, the Number hatched (Plutella xylostella eggs; [11]) was 10 and the Number unhatched (Plutella xylostella eggs; [11]) was 107. The “% Inhibition” value (Plutella xylostella eggs; Table 11, eggs laid on parafilm, 1 mM, relative to controls) was 91%, the Number hatched (Plutella xylostella eggs; [12]) was 0 and the Number unhatched (Plutella xylostella eggs; [12]) was 139. The “% Inhibition” value (Plutella xylostella eggs; Table 11, eggs laid on parafilm, 10 mM, relative to controls) was 100%.

From patent US20070254907A1, “COMPOSITIONS AND METHODS FOR CONTROLLING INFESTATION” (HATCHTECH PTY LTD, priority 2003, published 2007)
